US9983196B2, “Compositions and methods for optimizing drug hydrophobicity and drug delivery to cells” (Bioelastics, Inc., priority 2009, dated 2018)
One block for each substance: values may come before it.

How the values were obtained:
[1] = differential scanning calorimetry of the inverse temperature transition: ΔGHA-based hydrophobicity scale; type: physicochemical
Excerpt: Described herein is a hydrophobicity scale based on the change in Gibbs free energy of hydrophobic association. Increase in entropy of water drives endothermic phase transition of hydrophobic association. For a narrow phase transition the chemical potential, t, of the molecules in the phase separated, hydrophobically associated state, 1.IHA, and the solution, hydrophobically dissociated state, 1.1HD, are equal. Therefore, at constant temperature and pressure, i.e., at equilibrium, the change in Gibbs free energy for the phase transition is zero, (ΔGt)TP=0 and ΔHT=TtΔSt. For the breadth of the transition of elastic-contractile model proteins [ECMP], it is written: ΔHt≈TtΔSt, (1) i.e., the heat of the transition, ΔHt in kcal/mol, is approximated by the product of the temperature of the transition, Tt in ° K, times the entropy change attending the transition, ΔSt in kcal/° K-mol.
The van der Walls interaction is exothermic for the hydrophobic association attending the ITT, yet the ITT is endothermic. […] The derivation of the change in Gibbs free energy for hydrophobic association, ΔGHA, and evaluation by inverse temperature transition of hydrophobic association has been reported previously (D. W. Urry, The Change in Gibbs Free Energy for Hydrophobic Association Derivation and Evaluation by means of Inverse Temperature Transitions. Chem. Phys. Letters 399 (2004) 177-183.), and is given more simply below. […]
Given the above approximation, but also recognizing that ASt is a calculated result from the differential scanning calorimetric measurement of ΔHt, we define the change in Gibbs free energy for hydrophobic association, ΔGHA, as,
The differential scanning calorimetry (DSC) data of ΔHt(GVGVP) (SEQ ID NO:4) and ΔHt(GVGIP) (SEQ ID NO:8) in FIG. 1 of Luan and Urry, J Phys Chem 95:7896-7900, 1991 provide a specific example of the difference that defines ΔGHA. […] This is the same value of 1.5 kcal/mol-CH2 for the addition of a single CH2 as determined by Butler for the alcohol series.
Once the values are determined by difference with ΔHt(GVGVP) (SEQ ID NO:4) as represented in FIG. 1E, they are translated so the reference polymer is taken as (GGGVP (SEQ ID NO:11), as this residue is considered to be close to neutral, being neither polar nor apolar. For use of (GGGVP) (SEQ ID NO:11) as the reference, i.e., ΔHt(GGGVP) (SEQ ID NO:11)=AHt(ref), in Table 3 and FIG. 13, the change in Gibbs free energy for hydrophobic association is indicated as ΔG^oHA, i.e., […]
In this case most of the ΔG^oHA values have been obtained by taking the experimental Tt, suitably extrapolated to fx=1 to obtain Tt, and reading the value of ΔG^oHA from the sigmoid curve of FIG. 13. […]

[2] = cited from earlier work
[3] = cited from earlier work; remark: listed apart in the source
[4] = negatively stained, electron micrograph; cited from earlier work

contribution to change in Gibbs free energy for hydrophobic association on phosphorylation of Ser [1]: about +8 kcal/mol
Substance: Ser (PO4^−2)
Tt ([2]; guest residue χ in poly[fχ(GχGVP),fv(GVGVP)], extrapolated to fχ=1, some cells marked (Tt)): 860 (Tt) ° C.
Tt linearly extrapolated to fX = 1 ([2]; poly[fV(VPGVG),fX(VPGXG)], 40 mg/ml polymer, 0.15N NaCl, 0.01M phosphate pH 7.4): 860 °C
ΔG°HA(GχGVP) (from graph) ([3]; Tt used to obtain value from experimental sigmoid curve of Tt versus ΔG°HA): ≈+8.0 (from graph) kcal/mol-pentamer
ΔG°HA from FIG. 13 ([3]; gross estimates (±0.5 kcal/mol) from Tt and curve, 40 mg/ml polymer, 0.15N NaCl, 0.01M phosphate pH 7.4): +8.0 kcal/mol

Substance: (GVGVPGVGFPGEGFPGVGVPGVGFPGFGFP)42 (GVGVP) (GVGVPGVGFPGEGFPGVGVPGVGFPGFGFPGVGVP; repeat (1)..(30) the first 30 residues are repeated 42 times) [ECMP polymer of 253 pentamers forming drug delivery nanoparticles]
nominal size of nanoparticles [4]: 50 nm

ΔGHA of ionization (neutral versus charged residue) ([1]; from Table 1): 5.2 kcal/mol-pentamer
Substance: Glu(COO^−) [E−: Glu(COO^−)]
Tt (data within parentheses) ([2]; microbial preparations of poly(30 mers) (GVGVP GVGVP GχGVP GVGVP GVGVP GVGVP)n, n ≈ 40): (218) ° C.
ΔG°HA(GχGVP) (data within parentheses) ([3]; microbial preparations of poly(30 mers), n ≈ 40): (+3.72) kcal/mol-pentamer
